# Experimental data reported in patent publication US6114334A, “Piperazine derivatives as therapeutic agents” (Knoll Aktiengesellschaft, priority 1995, dated 2000).
# Structures can show the parent of a compound that is named as a salt. Where two headings read alike, the source gives them in different places.
# Assays:
# α2D-adrenoceptors = biological target: T1, α2D-adrenoceptors (Rattus norvegicus, UniProt P22909); assay: inhibition of tritiated idazoxan binding to α2D-adrenoceptors in vitro; set-up: species or system rat (male Charles River CD, frontal cortical tissue); settings: rat frontal cortex; for inhibition at 1 µM: 10^-6 M, [3H]idazoxan, read-out: % displacement at 10^-6 M, α2D; for Ki: [3H]idazoxan 1 nM, 0° C., 75 min
# T1 sequence (P22909 1-465): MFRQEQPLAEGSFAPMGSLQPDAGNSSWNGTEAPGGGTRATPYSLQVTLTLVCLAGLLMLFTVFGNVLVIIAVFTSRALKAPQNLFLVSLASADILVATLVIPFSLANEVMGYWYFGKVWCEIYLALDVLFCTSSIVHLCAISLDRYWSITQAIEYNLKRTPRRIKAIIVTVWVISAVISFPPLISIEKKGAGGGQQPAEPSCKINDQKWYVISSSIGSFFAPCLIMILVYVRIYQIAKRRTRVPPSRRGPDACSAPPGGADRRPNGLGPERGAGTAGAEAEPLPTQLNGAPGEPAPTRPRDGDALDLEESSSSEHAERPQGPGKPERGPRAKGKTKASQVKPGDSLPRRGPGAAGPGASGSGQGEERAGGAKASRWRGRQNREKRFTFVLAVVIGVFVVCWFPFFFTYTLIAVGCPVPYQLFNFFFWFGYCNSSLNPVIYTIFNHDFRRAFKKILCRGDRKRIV
# D2 dopamine receptors = D2 dopamine receptors (Rattus norvegicus, UniProt P61169); assay: inhibition of tritiated (S)-sulpiride binding to D2 dopamine receptors in vitro; set-up: species or system rat (male Charles River CD, striatal tissue); settings: rat striatum, tritiated (S)-sulpiride 1 nM, 4° C., 40 min
# D2 dopamine receptors, sequence (P61169 whole entry): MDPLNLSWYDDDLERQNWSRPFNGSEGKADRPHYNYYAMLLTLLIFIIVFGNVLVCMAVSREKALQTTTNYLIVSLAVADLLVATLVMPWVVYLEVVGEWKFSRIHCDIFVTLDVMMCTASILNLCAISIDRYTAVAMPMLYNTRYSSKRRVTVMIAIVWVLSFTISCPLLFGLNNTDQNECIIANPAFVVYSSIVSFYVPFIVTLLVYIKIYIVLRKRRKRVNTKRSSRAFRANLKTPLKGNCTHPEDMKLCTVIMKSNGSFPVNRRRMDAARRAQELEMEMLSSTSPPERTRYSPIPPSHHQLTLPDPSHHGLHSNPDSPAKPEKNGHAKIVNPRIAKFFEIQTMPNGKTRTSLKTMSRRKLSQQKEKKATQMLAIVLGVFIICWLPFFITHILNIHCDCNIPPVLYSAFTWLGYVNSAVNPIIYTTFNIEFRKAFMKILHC
# 5-HT1A receptors = biological target: T2, 5-HT1A receptors (Rattus norvegicus, UniProt P19327); assay: inhibition of [3H]8-OH-DPAT binding to 5-HT1A receptors in vitro; set-up: species or system rat (male Sprague-Dawley, hippocampal tissue); settings: for inhibition at 1 µM: read-out: % displacement at 10^-6 M, 5-HT1A; for Ki: [3H]8-OH-DPAT 2 nM, 25° C., 30 min
# T2 sequence (P19327 1-422): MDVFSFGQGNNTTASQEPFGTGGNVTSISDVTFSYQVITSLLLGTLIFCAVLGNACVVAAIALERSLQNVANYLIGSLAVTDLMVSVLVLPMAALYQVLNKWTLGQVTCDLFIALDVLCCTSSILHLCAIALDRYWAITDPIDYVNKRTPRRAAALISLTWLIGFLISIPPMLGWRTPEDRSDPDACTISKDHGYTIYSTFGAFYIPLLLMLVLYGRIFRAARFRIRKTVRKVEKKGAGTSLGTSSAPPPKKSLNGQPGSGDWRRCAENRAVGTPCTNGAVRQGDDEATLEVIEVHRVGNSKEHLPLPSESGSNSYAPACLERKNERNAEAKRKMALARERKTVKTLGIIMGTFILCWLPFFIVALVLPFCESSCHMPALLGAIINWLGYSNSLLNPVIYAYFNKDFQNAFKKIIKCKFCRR
# α1-adrenoceptors = assay: inhibition of 7-methoxy-[3H]prazosin binding to α1-adrenoceptors in vitro; set-up: species or system rat (male Charles River CD, whole cortical tissue); settings: rat whole cortex, 30 min; for Ki: 7-methoxy-[3H]prazosin 0.1 nM, 30° C.; for % displacement at 10^-6 M, α1: 7-methoxy-[3H]prazosin, 1 µM
# Method: Whole cortical tissue from the brains of male Charles River CD rats weighing between 150-250 g were homogenised in ice-cold 50 mM Tris-HCl, pH 7.6 (at 25° C.; 1:40 w/v) and centrifuged at 1000 g at 4° C. for 10 minutes. The supernatant was centrifuged at 30,000 g at 4° C. for 10 minutes. The pellet was rehomogenised in 50 mM Tris-HCl, pH 7.6 (1:40 w/v) and centrifuged at 30,000 g at 4° C. for 10 minutes. The final pellet was resuspended in 50 mM Tris-HCl, pH 7.6 (equivalent to 12.5 mg wet weight of tissue/ml) and used immediately in the binding assay. Aliquots (400 μl; equivalent to 5 mg wet weight of tissue/tube) of this suspension were added to tubes containing the ligand (50 μl; 0.1 nM) and distilled water (50 μl; total binding) or phentolamine (50 μl; 5 μM; non-specific binding) or test compound (50 μl; at a single concentration of 10^-6 M or at 10 concentrations ranging from 10^-11 -10^-3 M). The ligand was 7-methoxy-[^3 H]prazosin and the mixture was incubated at 30° C. for 30 minutes before the incubation was terminated by rapid filtration. The filters were washed with ice-cold Tris-HCl buffer and dried. The filters were punched out into vials, scintillation fluid added and radioactivity determined by liquid scintillation counting. The percentage displacement of specific binding of the tritiated ligand was calculated for the single concentration (10^-6 M) of test compound. […] The concentration which gave 50% inhibition of specific binding (IC50) was obtained from the curve. The inhibition coefficient Ki was then calculated using the formula [formula] in which [ligand] is the concentration of the tritiated ligand used and KD is the equilibrium dissociation constant for the ligand.
# [1] = 10^-6 M, rat hippocampus, [3H]8-OH-DPAT
inhibition at 1 µM (α2D-adrenoceptors),Ki (D2 dopamine receptors),inhibition at 1 µM (5-HT1A receptors; [1]),Ki (α1-adrenoceptors),"% displacement at 10^-6 M, α1 (α1-adrenoceptors)",Ki (α2D-adrenoceptors),Ki (5-HT1A receptors; rat hippocampus),Structure (SMILES),inhibition at 1 µM (5-HT1A receptors)
52%,> 0.5 µM,52%,> 0.5 µM,,,,"C=CCn1c(-c2cccnc2)nn(CN2CCN(c3cccc(C)c3C)CC2)c1=S [Example 61, 4-Allyl-2-[4-(2,3-dimethylphenyl)piperazin-1-ylmethyl]-5-(3-pyridyl)-1,2,4-triazole-3(2H,4H)-thione]",
68%,0.201 µM,77%,,59%,,,"C=CCn1c(-c2ccc(Cl)cc2)nn(CN2CCN(c3ccccc3OC)CC2)c1=S [Example 62, 4-Allyl-5-(4-chlorophenyl)-2-[4-(2-methoxyphenyl)piperazin-1-ylmethyl]-1,2,4-triazole-3(2H,4H)-thione]",
66%,0.193 µM,74%,> 0.5 µM,,,,"C=CCn1c(-c2cccnc2)nn(CN2CCN(c3ccccc3OC)CC2)c1=O [Example 63, 4-Allyl-2-[4-(2-methoxyphenyl)piperazin-1-ylmethyl]-5-(3-pyridyl)-1,2,4-triazol-3(2H,4H)-one]",
84%,0.093 µM,90%,,98%,,,"C=CCn1c(-c2cccnc2)nn(CCCCN2CCN(c3cccc(C)c3C)CC2)c1=O [Example 64, 4-Allyl-2-{4-[4-(2,3-dimethylphenyl)piperazin-1-yl]butyl}-5-(3-pyridyl)-1,2,4-triazol-3(2H,4H)-one 1.5 maleate]",
,> 0.5 µM,63%,,56%,> 0.5 µM,,"C=CCn1c(-c2cccnc2)nn(CCN2CCN(c3cccc(C)c3C)CC2)c1=O [Example 65, 4-Allyl-2-{2-[4-(2,3-dimethylphenyl)piperazin-1-yl]ethyl}-5-(3-pyridyl)-1,2,4-triazol-3(2H,4H)-one 2.8 hydrochloride]",
,> 0.5 µM,56%,,67%,> 0.5 µM,,"C=CCn1c(-c2ccccc2)nn(CCN2CCN(c3ccccc3OC)CC2)c1=O.O=C(O)/C=C/C(=O)O [Example 68, 4-Allyl-2-{2-[4-(2-methoxyphenyl)piperazin-1-yl]ethyl}-5-phenyl-1,2,4-triazol-3(2H,4H)-one monofumarate]",
,> 0.5 µM,70%,,93%,> 0.5 µM,,"C=CCn1c(-c2cccs2)nn(CCN2CCN(c3ccccc3OC)CC2)c1=O [Example 69, 4-Allyl-2-{2-[4-(2-methoxyphenyl)piperazin-1-yl]ethyl}-5-(2-thienyl)-1,2,4-triazol-3(2H,4H)-one]",
,0.31 µM,69%,,64%,> 0.5 µM,,"C=CCn1c(C)nn(CCN2CCN(c3ccccc3OC)CC2)c1=O [Example 70, 4-Allyl-2-{2-[4-(2-methoxyphenyl)piperazin-1-yl]ethyl}-5-methyl-1,2,4-triazol-3(2H,4H)-one]",
,> 0.5 µM,,,56%,> 0.5 µM,> 0.5 µM,"C=CCn1c(-c2cccnc2)nn(CCN2CCN(c3ccccc3C)CC2)c1=O [Example 71, 4-Allyl-2-{2-[4-(2-methylphenyl)piperazin-1-yl]ethyl}-5-(3-pyridyl)-1,2,4-triazol-3(2H,4H)-one]",
,> 0.5 µM,,,91%,> 0.5 µM,> 0.5 µM,"C=CCn1c(-c2cccnc2)nn(CCCN2CCN(c3ccccc3OC)CC2)c1=O.Cl.Cl.Cl [Example 72, 4-Allyl-2-{3-[4-(2-methoxyphenyl)piperazin-1-yl]propyl}-5-(3-pyridyl)-1,2,4-triazol-3(2H,4H)-one trihydrochloride]",

Structure (SMILES),inhibition at 1 µM (α2D-adrenoceptors),Ki (D2 dopamine receptors),inhibition at 1 µM (5-HT1A receptors; [1]),Ki (α1-adrenoceptors),"% displacement at 10^-6 M, α1 (α1-adrenoceptors)",Ki (α2D-adrenoceptors),Ki (5-HT1A receptors; rat hippocampus),inhibition at 1 µM (5-HT1A receptors)
"C=CCn1c(-c2ccccc2)nn(CCCCN2CCN(c3ccccc3OC)CC2)c1=O.Cl.Cl [Example 66, 4-Allyl-2-{4-[4-(2-methoxyphenyl)piperazin-1-yl]butyl}-5-phenyl-1,2,4-triazol-3(2H,4H)-one dihydrochloride]",,0.169 µM,,,99%,> 0.5 µM,,92%
"C=CCn1c(-c2cccnc2)nn(CCN2CCN(c3ccccc3OC)CC2)c1=O.Cl.Cl [Example 67, 4-Allyl-2-{2-[4-(2-methoxyphenyl)piperazin-1-yl]ethyl}-5-(3-pyridyl)-1,2,4-triazol-3(2H,4H)-one dihydrochloride]",,> 0.5 µM,,,78%,> 0.5 µM,,52%
